According to patent publication US12707888B2, “Asymmetric donor-acceptor molecular dyes” (THE UNIVERSITY OF NORTH CAROLINA AT CHARLOTTE, priority 2019, dated 2026):

Columns and labels:
[1] = Lippert-Mataga analysis of excited state dipole moments; type: physicochemical; conditions: semi-empirically calculated using the Lippert-Mataga equation
Procedure: The calculated HOMOs/LUMOs indicate that the strong solvatofluorochromism arises from an ICT mechanism, whereby the ground state has significant electron localization on the donor side of the molecule whereas the electron density shifts to the acceptor moiety in the excited state. To more directly quantify the strong ICT character of the TTz dyes, the excited-state dipole moments were calculated using the Lippert-Mataga equation (Eq 1):
[formula] where va and vf are the wavenumbers of the absorption and emission peaks in cm^−1, respectively; μ* and μ are the excited state and ground state dipoles, respectively; ϵ0 is the vacuum permittivity, h is Planck's constant, c is the speed of light, a is the Onsager cavity radius, Δf is the orientation polarizability, ϵ is the relative permittivity, and η is the refractive index. The dipoles were calculated using Spartan 2016 software, and the Onsager cavity radii were calculated using Gaussian '09 software.
FIGS. 9A and 9B show the Stokes shift of Bu2N-TTz-Py and Ph2N-TTz-COOH versus Δf, respectively. From the slopes of the Lippert-Mataga plots, the change between the dipole moments of the ground and excited states can be determined. Even though the Lippert-Mataga equation assumes no specific solvent-solute interactions (e.g. hydrogen bonding) and ignores solute polarizability, high degrees of linearity are apparent; and therefore, the estimations of the excited state dipoles are regarded as reliable. […] Perhaps owing to the minimal solvent interactions and rapid vibrational relaxation, the estimated changes in dipole moments (Δμ) are remarkably large (Table IV). […] Therefore, it is expected that these asymmetric TTzs dyes would be well suited to give high sensitivity in sensing applications whereby small changes in the polarity of the environment can lead to large differences in the wavelengths of fluorescence.

HEK 293T cells [2] = assay: Whole-cell patch clamp voltage sensitivity; type: cell-based, Human; conditions: 500 nM dye, cells held at −60 mV, 10 mV steps
Procedure: Having established its environmental sensitivity and proclivity for membrane localization, it was hypothesized that Bu2N-TTz-Py could orient itself favorably within cell membranes and sense voltage differentials across the membrane. To test the membrane voltage sensitivity of Bu2N-TTz-Py, whole-cell patch clamp electrophysiology was performed on HEK 293T cells labeled with 500 nM Bu2N-TTz-Py. […] Tests concluded that Bu2N-TTz-Py has a voltage sensitivity of approximately 10% ΔF/F per 100 mV. For context, early generation VSDs, such as RH-421, ANNINE-6, and VF2.1.Cl, display maximum voltage sensitivities of 10%-25% ΔF/F per 100 mV.
Cell labeled spectral measurements. Excitation and emission spectra were collected by labeling the alveolar macrophage cell line J774.A1 (~0.5×10^5 cells) with 1 μM Bu2N-TTz-Py in phosphate buffered saline (PBS) buffer and 0.1% TritonX-100. Cells were incubated with dye for 10 min at RT, washed thrice with PBS, and dispersed in a cuvette for fluorescent spectral measurements (Fluoromax-4, Horiba Scientific, Edison, NJ, USA). Excitation spectra were collected at 520 nm emission. Emission spectra were collected by exciting at 440 nm. Electrophysiology. […]

HEK 293T cells [3] = assay: Photostability under continuous illumination in cells; type: cell-based, Human
Procedure: FIG. 12B details photostability of Bu2N-TTz-Py and VF2.1.Cl in HEK 293T cells (illuminated using λ=440 nm at […]) and their representative pseudo-gray scale images under continuous illumination at wavelength of maximum excitation. Error bars a/b represent the standard error of mean (S.E.M.) for 3 independent experiments, n=12 total cells. Scale bar=10 μm.
Microscopy. Imaging was carried out on an IX83 inverted microscope (Olympus Corporation of the Americas, Center Valley, PA, USA) using 100×, 1.4 NA, DIC oil immersion objective (PLAPON, Olympus) and an Evolve Delta 512 EMCCD camera (Photometrics, USA). Filter wheel, shutter, and CCD camera were controlled using Metamorph premier Ver 7.8.12.0 (Molecular Devices, LLC, USA). For photostability studies, HEK 293T cells were labeled with 500 nM Bu2N-TTz-Py and illuminated continuously with ~5 W cm^−2 power light source, periodically acquiring images at 1 min interval. Bu2N-TTz-Py channel images were obtained using 480/20 bandpass excitation filter, 575/40 bandpass emission filter and 89016 dichroic. VF2.1.Cl channel images were obtained using 500/20 bandpass excitation filter, 535/40 bandpass emission filter and 69002 dichroic. For CellMask™ red, images were obtained using the 640/30 bandpass excitation filter, 705/72 bandpass emission filter and 89016 dichroic.

- Change in Dipole Δμ [1]: 15.9 D
- Excited State Dipole μ* [1]: 24.3 D
- molar absorptivity ε (HEK 293T cells [3]; @ 440 nm LED): 15,000-20,000 cm^−1 M^−1
- decay of fluorescence intensity (HEK 293T cells [3]; in the same amount of time (approx. 7.5 minutes), I=5 W cm^−2, 440 nm LED): less than 10%
Structure (SMILES): CCCCN(CCCC)c1ccc(-c2nc3sc(-c4ccncc4)nc3s2)cc1 [Bu2N-TTz-Py, 2-(N,N-dibutyl-4-aminophenyl)-5-(4-pyridyl) thiazolo[5,4-d]thiazole]
- voltage sensitivity (HEK 293T cells [2]): approximately 10 % ΔF/F per 100 mV
